{
  "source": "patent US20100016221A1",
  "about": "“METHOD OF DEGRADING PROTEIN BY CHAPERONE-MEDIATED AUTOPHAGY” (RIKEN, priority 2008, published 2010)",
  "key": {"[1]": {"test_system": "polyQ inclusions in 150Q Neuro2a cells (tNhtt-EGFP-150Q)", "assay": "ArrayScan quantification of polyQ inclusion formation in inducible 150Q Neuro2a cells", "format": "cell-based, mouse", "conditions": "constructs without mRFP, induced and differentiated for 24 hours", "description": "(§1) Mouse neuroblastoma (Neuro2a) cells were maintained in Dulbecco's modified Eagle's medium (Sigma) supplemented with 10% heat-inactivated fetal bovine serum (Sigma), 100 U/ml penicillin and 100 μg/ml streptomycin (Invitrogen) at 37° C. in an atmosphere containing 5% CO2 and 95% air. Establishment of stable Neuro2a cell lines with the ecdysone-inducible mammalian expression system (Invitrogen), that express tNhtt-EGFP-16Q (16Q Neuro2a cells), tNhtt-EGFP-150Q (150Q Neuro2a cells) and tNhtt-EGFP-150Q-nls (150Q-nls Neuro2a cells) has been described earlier (T. Nagai et al., supra, H. Doi et al., supra, E. A. Zemskov et al., J Neurochem. 87, 2 (2003)). Neuro2a cells were differentiated with 5mM dbcAMP (N^6, 2′-O-dibutyryladenosine-3′,5′-cyclic monophosphate sodium salt) (Nacalai Tesque) and induced to express tNhtt-polyQ with 2 μM ponasterone A (ponA; Invitrogen) for indicated times. Neuro2a/FRT/TR cell line was generated as described in the protocol for Flp-in/T-Rex system (Invitrogen). Neuro2a tNhtt-62Q-kikGR cell line was generated by transfecting Neuro2a/FRT/TR cells with the pFRT-HD62-KikGR and pOG44 (Invitrogen) constructs using Lipofectamine 2000 reagent and selected with 200 μg/ml hygromycin. The expression of the pFRT-tNhtt-62Q-KikGR was induced by 18 doxycycline treatment of the cells. For the photo-induced kikGR cleavage, cells were exposed to ˜400 nm wavelength for 5 minutes. Rat pheochromocytoma (PC12) cells were grown in the same conditions as Neuro2a cells, except for the serum composition of 5% of fetal bovine and 10% of horse serum (Sigma). All transient transfections were performed with Lipofectamine 2000 (Invitrogen) according to the manufacturer's instruction.\n(§2) For the quantification of the inclusions, cells were grown in 24-well plates for indicated periods, fixed in 4% paraformaldehyde, washed and incubated with Hoechst 33258 at 1/1000 dilution in PBS. Cells were analyzed by ArrayScan® V^TI High Content Screening (HSC) Reader (Cellomics) using Target Activation BioApplication (TABA). TABA analyzes images acquired by a HSC Reader and provides measurements of the intracellular fluorescence intensity and localization on a cell-by-cell basis.\n(§3) In each well, at least 10000 cells were counted and quantified for the presence of the inclusions. Nuclei stained with Hoechst 33285 provided the autofocus target and their count gave the exact number of the quantified cells. The screening itself consisted of two scans using Hoechst, FITC (for GFP) and TRITC (for RFP) fluorescence. Firstly, number of inclusions in transfected cells was calculated when fluorescent spots at size of at least 5 pixels (magnification 20× for cytoplasmic and 40× for nuclear aggregates) with average GFP intensity more than 1500 in the RFP background were counted. Secondly, nuclei were defined as the objects of interest and the cells with average intensity more than 50 within 3 pixels from the nucleus were selected for the analysis. The percentage of the cells with aggregates was then calculated. When the constructs without mRFP were used for transfection, the procedure was same, except the RFP intensity was not measured. Scanning was performed with triplicate or quadruplicate in each experimental condition. Data was generated from the quantification of more than 250,000 cells in each experimental set-up."}, "[2]": {"test_system": "polyQ inclusions in 150Q-nls Neuro2a cells (tNhtt-EGFP-150Q-nls)", "assay": "ArrayScan quantification of polyQ inclusion formation in inducible 150Q-nls Neuro2a cells", "format": "cell-based, mouse", "conditions": "150Q-nls Neuro2a cells, constructs without mRFP, 48 hours after induction", "description": "as §1, with “Rat pheochromocytoma (PC12) cells were grown in the same conditions as Neuro2a cells, except for the serum composition of 5% of fetal bovine and 10% of horse serum (Sigma). All transient transfections were performed with Lipofectamine 2000 (Invitrogen) according to the manufacturer's instruction.” left out\nas §2\nas §3, with “Secondly, nuclei were defined as the objects of interest and the cells with average intensity more than 50 within 3 pixels from the nucleus were selected for the analysis.” left out, “Scanning was performed with triplicate or quadruplicate in each experimental condition.” left out"}, "150Q-EGFP": {"target": "T1, 150Q-EGFP (Homo sapiens, UniProt P42858)", "T1 construct": "N-terminal fragment of human huntington exon 1 (tNhtt); expressed in transfected cells; host or cells: Neuro2a cells, transient co-transfection (pcDNA3.1)", "T1 sequence (P42858 with tags, fused parts or gaps)": "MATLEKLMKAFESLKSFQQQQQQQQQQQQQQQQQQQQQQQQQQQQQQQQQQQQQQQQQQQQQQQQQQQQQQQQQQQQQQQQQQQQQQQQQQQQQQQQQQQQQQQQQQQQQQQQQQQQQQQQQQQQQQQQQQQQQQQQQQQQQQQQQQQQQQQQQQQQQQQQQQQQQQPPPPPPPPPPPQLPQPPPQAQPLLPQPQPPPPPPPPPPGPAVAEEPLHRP", "assay": "Co-transfection with 150Q-EGFP in Neuro2a cells, confocal imaging with Lysotracker-rhodamine", "format": "cell-based", "conditions": "co-expression for 16 hours", "source_text": "The construction of the N-terminal fragment of human huntington exon 1 (tNhtt) encoding 60 CAG repeats was previously described (G. H. Wang et al., Neuroreport 10, 12(1999)). This fragment was fused to the N-terminal of a variant of yellow fluorescent protein (Venus) (T. Nagai et al., Nat. Biotechnol. 20, 1 (2002)) and inserted into the pcDNA3.1 vector (60Q). Two Hsc70 binding motifs (HSC70bm) (SEQ ID NOs:9 and 10: in bold) were inserted between the Cfr13I and BamHI cutting sites of 60Q: 5′-GTTAAGAAGGATCAA-GCTGGAGCCGCTGCACCG-AAGTTCGAACGTCAA-3′ (SEQ ID NO:11). The tNhtt-16Q-EGFP and tNhtt-150Q-EGFP plasmids for transient transfection were prepared by the introduction of the coding sequence into pcDNA3.1 vector (Invitrogen). […]\nTo investigate whether the (R)HQ targets the polyQ to lysosomes, the present inventors co-transfected HQ or other constructs with 16Q-EGFP or 150Q-EGFP to Neuro2a cells for 16 hours. In the cells expressing 16Q-EGFP, none of the co-transfected constructs had any effect on the subcellular distribution of the green fluorescence (FIG. 2C). […] To confirm this observation, the present inventors co-transfected the tested constructs with tNhtt-60Q to Neuro2a cells, 16 hours later purified intact lysosomes and analyzed them for the presence of the polyQ protein. […]"}},
  "data": [
    {"substance": "HSC70bm-(QBP1)2 (MARVKKDQAEPLHRKFERQPPGSNWKWWPGIFDSNWKWWPGIFD) [HQ]", "values": [
      {"measurement": "decrease of aggregation compared to control counterparts (S and HS)", "setting": "[1]", "value": 58.5, "unit": "%"},
      {"measurement": "reduction of aggregation compared to control counterparts (S and HS)", "setting": "[2]", "value": 45.2, "unit": "%"},
      {"measurement": "subcellular distribution of 150Q-EGFP fluorescence", "setting": "150Q-EGFP", "value": "fluorescence intensity decreased, redistributed and partly co-localized with the lysosomal marker"}
    ]}
  ]
}
